Structures are written as SMILES.

The assay can be described thus: Inhibitory activity against thromboxane B2 formation (TXA2 synthase) by incubating prostaglandin H2 (PGH-2) with horse platelet microsomes.
A word on the IC50: it is the midpoint of a concentration-inhibition curve. A higher IC50 goes with weaker potency in that assay. `CSC(CCC/C=C(\c1ccccc1)c1cccnc1)C(=O)O` (configuration not stated) [2-Methylsulfanyl-7-phenyl-7-pyridin-3-yl-hept-6-enoic acid]: the IC50 worked out at 30 nM.
Turning to `O=C(O)C(CCC/C=C(\c1cccnc1)c1cccs1)c1ccccc1` (configuration not stated) [2-Phenyl-7-pyridin-3-yl-7-thiophen-2-yl-hept-6-enoic acid], the IC50 amounted to 32 nM.
To `O=C(O)CCCC/C=C(/CCCc1ccccc1)c1cccnc1` [10-Phenyl-7-pyridin-3-yl-dec-6-enoic acid] belongs 65 nM; to `O=C(O)CCCCCC(c1ccccc1)c1cccnc1` (configuration not stated) [7-Phenyl-7-pyridin-3-yl-heptanoic acid], 2700 nM; to `O=C(O)CCCC/C=C(/c1ccc(F)cc1)c1cccnc1` [7-(4-Fluoro-phenyl)-7-pyridin-3-yl-hept-6-enoic acid], 83 nM.
The figure for `C/C(=C/CCCCC(=O)O)c1cccnc1` [7-Pyridin-3-yl-oct-6-enoic acid] is 71 nM; for `Cc1ccc(/C(=C/CCCCC(=O)O)c2cccnc2)cc1` [7-Pyridin-3-yl-7-p-tolyl-hept-6-enoic acid] it is 85 nM; for `CC(C)(CCC/C=C(\c1ccccc1)c1cccnc1)C(=O)O` [2,2-Dimethyl-7-phenyl-7-pyridin-3-yl-hept-6-enoic acid] it is 21 nM.
The figure for `COC(=O)CCCC/C=C(\c1ccccc1)c1cccnc1` [7-Phenyl-7-pyridin-3-yl-hept-6-enoic acid methyl ester] is 100 nM.
Consider `CC(C)(CCCC/C=C(/c1ccccc1)c1cccnc1)C(=O)O` [2,2-Dimethyl-8-phenyl-8-pyridin-3-yl-oct-7-enoic acid], for which the midpoint of inhibition, the IC50, lay at 38 nM.
The figure for `O=C(O)CCC/C=C(\c1ccccc1)c1cccnc1` [6-Phenyl-6-pyridin-3-yl-hex-5-enoic acid] is 30 nM; for `O=C(O)CCCC/C=C(\c1cccnc1)c1cccc(Br)c1` [7-(3-Bromo-phenyl)-7-pyridin-3-yl-hept-6-enoic acid] it is 180 nM.
On to `O=C(O)CCCC/C=C(/c1cccnc1)c1ccsc1` [(Z)-7-Pyridin-3-yl-7-thiophen-3-yl-hept-6-enoic acid], for which half-maximal inhibition (IC50) required 62 nM. Against the preceding compound, the IC50 is about 2.9-fold lower.
Compound `O=C(O)C(CCC/C=C(\c1ccccc1)c1cccnc1)Sc1ccccc1` (configuration not stated) [7-Phenyl-2-phenylsulfanyl-7-pyridin-3-yl-hept-6-enoic acid] yielded an IC50 of 33 nM.
The figure for `CC(C)(CCCC/C=C(\c1ccccc1)c1cccnc1)C(=O)O` [2,2-Dimethyl-8-phenyl-8-pyridin-3-yl-oct-7-enoic acid] is 45 nM; for `O=C(O)CCCC/C=C\c1cccnc1` [7-Pyridin-3-yl-hept-6-enoic acid] it is 250 nM; for `CC(C)CSC(CCC/C=C(\c1ccccc1)c1cccnc1)C(=O)O` (configuration not stated) [2-Isobutylsulfanyl-7-phenyl-7-pyridin-3-yl-hept-6-enoic acid] it is 110 nM.
To `COCC(CCC/C=C(\c1ccccc1)c1cccnc1)C(=O)O` (configuration not stated) [2-Methoxymethyl-7-phenyl-7-pyridin-3-yl-hept-6-enoic acid] belongs 41 nM; to `O=C(O)CCCC/C=C(\c1cccnc1)c1cccs1` [7-Pyridin-3-yl-7-thiophen-2-yl-hept-6-enoic acid], 20 nM.
To `C=CCC(CCC/C=C(\c1ccccc1)c1cccnc1)C(=O)O` (configuration not stated) [2-Allyl-7-phenyl-7-pyridin-3-yl-hept-6-enoic acid] belongs 50 nM; to `COc1ccc(/C(=C/CCCCC(=O)O)c2cccnc2)cc1` [7-(4-Methoxy-phenyl)-7-pyridin-3-yl-hept-6-enoic acid], 80 nM.
Turning to `O=C(O)CCCCCCCCC/C=C(\c1ccccc1)c1cccnc1` [12-Phenyl-12-pyridin-3-yl-dodec-11-enoic acid], the IC50 stood at 55 nM.
To `O=C(O)CCC/C=C(/c1ccccc1)c1cccnc1` [6-Phenyl-6-pyridin-3-yl-hex-5-enoic acid] belongs 280 nM; to `O=C(O)C(CCC/C=C(\c1ccccc1)c1cccnc1)C1=CCCC1` (configuration not stated) [2-Cyclopent-1-enyl-7-phenyl-7-pyridin-3-yl-hept-6-enoic acid], 60 nM; to `CC(C)(O)C(CCC/C=C(\c1ccccc1)c1cccnc1)C(=O)O` (configuration not stated) [2-(1-Hydroxy-1-methyl-ethyl)-7-phenyl-7-pyridin-3-yl-hept-6-enoic acid], 42 nM.
To `CC(C)(CCC/C=C(/c1ccccc1)c1cccnc1)C(=O)O` [2,2-Dimethyl-7-phenyl-7-pyridin-3-yl-hept-6-enoic acid] belongs 30 nM.
The figure for `CCOC(=O)CCCC/C=C(\c1ccccc1)c1cccnc1` [7-Phenyl-7-pyridin-3-yl-hept-6-enoic acid ethyl ester] is 600 nM.
`C=C(C)C(CCC/C=C(\c1ccccc1)c1cccnc1)C(=O)O` (configuration not stated) [2-Isopropenyl-7-phenyl-7-pyridin-3-yl-hept-6-enoic acid] came in with an IC50 of 28 nM. This IC50 lies about 21-fold lower than the previous one.
Consider `O=C(O)CCCC/C=C(/c1cccnc1)c1cccs1` [(Z)-7-Pyridin-3-yl-7-thiophen-2-yl-hept-6-enoic acid], for which the IC50 came to 54 nM.
To `O=C(O)CCCC/C=C(\c1cccnc1)c1cccc([N+](=O)[O-])c1` [7-(3-Nitro-phenyl)-7-pyridin-3-yl-hept-6-enoic acid] belongs 73 nM.
To `O=C(O)CCCC/C=C(\c1ccccc1)c1ccc[n+]([O-])c1` [7-(1-Oxy-pyridin-3-yl)-7-phenyl-hept-6-enoic acid] belongs over 10000 nM; to `O=C(O)CCCCCCCCC/C=C(/c1ccccc1)c1cccnc1` [12-Phenyl-12-pyridin-3-yl-dodec-11-enoic acid], 520 nM.
For the compound `O=C(O)CCCC/C=C(\c1cccnc1)c1cccc(F)c1` [7-(3-Fluoro-phenyl)-7-pyridin-3-yl-hept-6-enoic acid], the IC50 was 55 nM. Compared with the last compound, the IC50 is about 9.5-fold lower.
To `O=C(O)CCCC/C=C(\c1cccnc1)c1ccccc1Br` [7-(2-Bromo-phenyl)-7-pyridin-3-yl-hept-6-enoic acid] belongs 130 nM.
The compound `O=C(O)CCCC/C=C(/c1ccccc1)c1ccccn1` [7-Phenyl-7-pyridin-2-yl-hept-6-enoic acid] gave an IC50 of over 100000 nM.
The figure for `Cc1ccsc1/C(=C/CCCCC(=O)O)c1cccnc1` [7-(3-Methyl-thiophen-2-yl)-7-pyridin-3-yl-hept-6-enoic acid] is 29 nM.
The figure for `O=C(O)C(CCC/C=C(\c1ccccc1)c1cccnc1)C1(O)CCCC1` (configuration not stated) [2-(1-Hydroxy-cyclopentyl)-7-phenyl-7-pyridin-3-yl-hept-6-enoic acid] is 65 nM.
In turn, `O=C(O)CCCC/C=C(/c1ccc(Br)cc1)c1cccnc1` [7-(4-Bromo-phenyl)-7-pyridin-3-yl-hept-6-enoic acid] had an IC50 of 82 nM.
To `NC(=O)CCCC/C=C(\c1ccccc1)c1cccnc1` [7-Phenyl-7-pyridin-3-yl-hept-6-enoic acid amide] belongs 400 nM.
To `O=C(O)CCCC/C=C(\c1cccnc1)c1ccsc1` [7-Pyridin-3-yl-7-thiophen-3-yl-hept-6-enoic acid] belongs 31 nM; to `O=C(O)C(CCC/C=C(/c1cccnc1)c1cccs1)c1ccccc1` (configuration not stated) [2-Phenyl-7-pyridin-3-yl-7-thiophen-2-yl-hept-6-enoic acid], 50 nM; to `C/C(=C\CCCCC(=O)O)c1cccnc1` [(Z)-7-Pyridin-3-yl-oct-6-enoic acid], 210 nM.

(Values after BindingDB's records for doi:10.1021/jm00381a005 (1985).)
